The results in this text go back to paper PMC10575921 (Nature Communications, 2023).

SMILES strings stand for the structures. “And” between values parts separate entries of the source, which are not always exact repeats. Equal values may be shown once. Read-outs that look alike come from different tables or passages of the source.

The subject of data set [1] is SARS-CoV-2 Delta strain. Nature of the data set: microbe, parasite or virus in culture. In kind it is cell-based.
Data set [2] is described as follows: in vitro. As to conditions: African green monkey.
For data set [3] the following is noted: buffer, pH 7.4.
The target of data set [4] is T1, SARS-CoV-2 3CL^pro (Severe acute respiratory syndrome coronavirus 2, UniProt P0DTD1). The experiment in a line: biochemical. The conditions noted are these: for inhibition at 1 µM: concentration 1000.00 nM; for inhibition at 3.125 µM: concentration 3125.00 nM.
Data set [5] concerns the target T1, SARS-CoV-2 3CL^pro. In kind it is biochemical.
Data set [6] deals with human primary hepatocytes. As to conditions: primary hepatocyte cytotoxicity.
Setting [7] is: concentration 31.25 nM, read-out: inhibition ratio (%).
Setting [8] is: concentration 500.00 nM, read-out: inhibition ratio (%).
The mark [9] stands for this setting: Severe acute respiratory syndrome coronavirus 2, Vero C1008, read-out: EC50 (nM) Mean.
The mark [10] stands for this setting: 500.00 nM, read-out: inhibition ratio (%).
[11] abbreviates: concentration 15.63 nM, read-out: inhibition ratio (%).
[12] abbreviates: 15.63 nM, read-out: inhibition ratio (%).
[13] abbreviates: 31.25 nM, read-out: inhibition ratio (%).
Where [14] appears, read: concentration 50000.00 nM, read-out: inhibition ratio (%).
The mark [15] stands for this setting: concentration 100000.00 nM, read-out: inhibition ratio (%).
The mark [16] stands for this setting: concentration […], read-out: inhibition ratio (%).

A word on the EC50: it is the concentration giving half of the maximal effect. Regarding `CC(C)(C)NC(=O)N[C@H](C(=O)N1C[C@H]2[C@@H]([C@H]1C(=O)N[C@H](C#N)C[C@@H]1CCNC1=O)C2(C)C)C(C)(C)C` [compound 2], the EC50 in data set [1] (Severe acute respiratory syndrome coronavirus 2, Vero C1008) stood at 7400 nM; in data set [1] (Severe acute respiratory syndrome coronavirus 2, Vero C1008, read-out: EC50 (nM), single independent experiment), 5890 nM; in data set [1] (read-out: EC50^CP) it was 319 nM. The molecule further had a CC50 in data set [2] greater than 500 µM. For the same molecule, the “GSHt1/2 (half-life of the electrophile warhead to react with glutathione)” value in data set [3] is 16 h. In data set [4] (setting [7]), the inhibition at 0.03125 µM amounted to 59.6%. Besides, the inhibition at 0.5 µM in data set [4] (setting [8]) came out at 100%.

Consider `CC(C)(C)[C@H](NC(=O)C(F)(F)F)C(=O)N1C[C@H]2[C@@H]([C@H]1C(=O)N[C@H](C#N)C[C@@H]1CCNC1=O)C2(C)C` [nirmatrelvir, reference compound], for which the EC50 in data set [1] (read-out: EC50^CP) worked out at 30 nM.

For the molecule `CC(C)(C)NC(=O)N[C@H](C(=O)N1C[C@H]2[C@@H]([C@H]1C(=O)NC(CC1CCC1)C(=O)C(N)=O)C2(C)C)C(C)(C)C` (stereo partly drawn) [boceprevir, reference compound], the inhibition at 50 µM in data set [4] (50000.00 nM, read-out: inhibition ratio (%)) was 90.9%. Further, in data set [4] (100000.00 nM, read-out: inhibition ratio (%)), the inhibition at 100 µM was determined as 97.1%. For the same molecule, in data set [4] ([…], read-out: inhibition ratio (%)), the inhibition at 25 µM amounted to 82.4%.

As for `CC(C)(C)[C@H](NC(=O)C1(F)CC1)C(=O)N1CC2(C[C@H]1C(=O)N[C@H](C#N)C[C@@H]1CCNC1=O)SCCS2` [compound 10], the 50% effective concentration (EC50) in data set [1] (setting [9]) came out at 1100 nM. Besides, in data set [2], the CC50 is greater than 500 µM. For the same molecule, in data set [4] (setting [10]), the inhibition at 0.5 µM was found to be 94%.

What is called IC50 is the concentration at which inhibition is half-maximal. In the case of `CC(=O)/C=C/[C@H](C[C@@H]1CCNC1=O)NC(=O)[C@@H]1[C@@H]2[C@H](CN1C(=O)[C@@H](NC(=O)NC(C)(C)C)C(C)(C)C)C2(C)C` [compound 3], the “reversibility of SARS-CoV-2 3CLpro inhibition” value in data set [5] was “irreversible”. Besides, the “GSHt1/2 (half-life of the electrophile warhead to react with glutathione)” value in data set [3] was determined as 0.25 h. The IC50 in data set [4] (IC50) was 14 nM; in data set [4] (IC50 (nM)), 12 nM and 17 nM and 14 nM. The inhibition at 0.01563 µM in data set [4] (setting [11]) came to 52.7%. The inhibition at 0.03125 µM in data set [4] (setting [7]) is 85.4%. The inhibition at 0.5 µM in data set [4] (setting [8]) was 101%. For the same molecule, the inhibition at 1 µM in data set [4] (read-out: inhibition ratio (%)) worked out at 99.6%.

Turning to `CC(C)(C)[C@H](NS(C)(=O)=O)C(=O)N1CC2(C[C@H]1C(=O)N[C@H](C#N)C[C@@H]1CCNC1=O)SCCS2` [compound 11], in data set [1] (setting [9]), the EC50 was determined as 10400 nM. In data set [2], the CC50 is greater than 500 µM. Moreover, in data set [4] (setting [12]), the inhibition at 0.01563 µM turned out to be 54%. Also, the inhibition at 0.03125 µM in data set [4] (setting [13]) was 73.9%. Besides, in data set [4] (setting [10]), the inhibition at 0.5 µM amounted to 94.6%.

`CC(C)(C)NC(=O)N[C@H](C(=O)N1C[C@@H]2CCC[C@@H]2[C@H]1C(=O)N[C@H](C#N)C[C@@H]1CCNC1=O)C(C)(C)C` [compound 8]: the IC50 was 50 nM in data set [4] (IC50); 49.2 nM and 55.8 nM and 45.8 nM in data set [4] (IC50 (nM)). Further, the inhibition at 0.03125 µM in data set [4] (setting [7]) was 37.9%. Besides, the inhibition at 0.5 µM in data set [4] (setting [8]) came to 93.2%.

For `CC(C)(C)NC(=O)N[C@H](C(=O)N1CC2(C[C@H]1C(=O)N[C@H](C#N)C[C@@H]1CCNC1=O)SCCS2)C(C)(C)C` [compound 7], the EC50 in data set [1] (setting [9]) amounted to 30000 nM; in data set [1] (read-out: EC50^CP), 220 nM. The same molecule displayed a CC50 in data set [2] greater than 500 µM. Further, in data set [4] (setting [11]), the inhibition at 0.01563 µM is 28.1%. In addition, the inhibition at 0.5 µM in data set [4] (setting [8]) came out at 97.8%.

For the molecule `CC(C)(C)NC(=O)N[C@H](C(=O)N1CC[C@@H](Oc2ccccc2)[C@H]1C(=O)N[C@H](C#N)C[C@@H]1CCNC1=O)C(C)(C)C` [compound 4], the IC50 in data set [4] (IC50) is 6940 nM; in data set [4] (IC50 (nM)) it was 7170 nM and 7720 nM and 5940 nM. In data set [4] (read-out: inhibition ratio (%)), the inhibition at 3.125 µM came to 31.2%. Besides, the inhibition at 50 µM in data set [4] (setting [14]) turned out to be 91.2%. Besides, in data set [4] (setting [15]), the inhibition at 100 µM amounted to 96.8%. Also, the inhibition at 25 µM in data set [4] (setting [16]) came to 86%.

For the molecule `CC(C)(C)NC(=O)N[C@H](C(=O)N1C[C@@H](Sc2ccccc2)C[C@H]1C(=O)N[C@H](C#N)C[C@@H]1CCNC1=O)C(C)(C)C` [compound 6], the half-maximal inhibitory concentration (IC50) is 7210 nM in data set [4] (IC50); 6060 nM and 8400 nM and 7190 nM in data set [4] (IC50 (nM)). Further, the inhibition at 3.125 µM in data set [4] (read-out: inhibition ratio (%)) was 22.4%. Moreover, in data set [4] (setting [14]), the inhibition at 50 µM stood at 90.5%. In addition, the inhibition at 100 µM in data set [4] (setting [15]) turned out to be 97.7%. Further, the inhibition at 25 µM in data set [4] (setting [16]) amounted to 81.8%.

Consider `CC/C(=C(\c1ccccc1)c1ccc(OCCN(C)C)cc1)c1ccccc1` [Tamoxifen], for which the “% of vehicle control” value was 109.51% in data set [6] (0.206 μM); 81.38% and 83.81% and 90.39% in data set [6] (5.56 μM); 0.08% and 0.0644% and 0.0757% in data set [6] (16.67 μM); 0.06% and 0.05% in data set [6] (50 μM); 0.0474% and 0.03% and 0.04% in data set [6] (150 μM).

As for `CC(C)(C)NC(=O)N[C@H](C(=O)N1C[C@@H](c2ccccc2)C[C@H]1C(=O)N[C@H](C#N)C[C@@H]1CCNC1=O)C(C)(C)C` [compound 5], the IC50 is 814 nM in data set [4] (IC50); 883 nM and 880 nM and 679 nM in data set [4] (IC50 (nM)). The inhibition at 5 µM in data set [4] (concentration 5000.00 nM, read-out: inhibition ratio (%)) turned out to be 91.4%. Besides, the inhibition at 10 µM in data set [4] (concentration 10000.00 nM, read-out: inhibition ratio (%)) is 94.8%.

Take `CC(C)(C)[C@H](NS(=O)(=O)C1CC1)C(=O)N1CC2(C[C@H]1C(=O)N[C@H](C#N)C[C@@H]1CCNC1=O)SCCS2` [compound 12]: the concentration for a half-maximal effect (EC50) in data set [1] (setting [9]) came out at 10700 nM. This molecule had a CC50 in data set [2] greater than 500 µM. The inhibition at 0.01563 µM in data set [4] (setting [12]) was 72.8%. Further, the inhibition at 0.03125 µM in data set [4] (setting [13]) came out at 86.6%. The inhibition at 0.5 µM in data set [4] (setting [10]) worked out at 97.9%.

For the molecule `CC(C)(C)NC(=O)N[C@H](C(=O)N1C[C@H]2[C@@H]([C@H]1C(=O)N[C@H](C=O)C[C@@H]1CCNC1=O)C2(C)C)C(C)(C)C` [compound 1], in data set [3], the “GSHt1/2 (half-life of the electrophile warhead to react with glutathione)” value turned out to be 1.68 h. Besides, the inhibition at 0.01563 µM in data set [4] (setting [11]) amounted to 72.2%. The inhibition at 0.03125 µM in data set [4] (setting [7]) turned out to be 81.7%. Besides, the inhibition at 1 µM in data set [4] (read-out: inhibition ratio (%)) is 99.4%.
